Measured values: patent US10336762B2 (priority 2017, dated 2019)
Like-named read-outs stand apart in the source and are kept apart here.

Assays:
IRAK4 enzyme = IRAK4 enzyme (Homo sapiens (Human), UniProt Q9NWZ3); assay: biochemical; format: biochemical; conditions: IRAK4 enzyme, 500 μM ATP
TNFα = assay: cells; format: cell-based, human; conditions: Homo sapiens, Monocyte, LPS-stimulated human monocytes, read-out: EC50 TNF

IRAK4 enzyme, sequence (Q9NWZ3 whole entry): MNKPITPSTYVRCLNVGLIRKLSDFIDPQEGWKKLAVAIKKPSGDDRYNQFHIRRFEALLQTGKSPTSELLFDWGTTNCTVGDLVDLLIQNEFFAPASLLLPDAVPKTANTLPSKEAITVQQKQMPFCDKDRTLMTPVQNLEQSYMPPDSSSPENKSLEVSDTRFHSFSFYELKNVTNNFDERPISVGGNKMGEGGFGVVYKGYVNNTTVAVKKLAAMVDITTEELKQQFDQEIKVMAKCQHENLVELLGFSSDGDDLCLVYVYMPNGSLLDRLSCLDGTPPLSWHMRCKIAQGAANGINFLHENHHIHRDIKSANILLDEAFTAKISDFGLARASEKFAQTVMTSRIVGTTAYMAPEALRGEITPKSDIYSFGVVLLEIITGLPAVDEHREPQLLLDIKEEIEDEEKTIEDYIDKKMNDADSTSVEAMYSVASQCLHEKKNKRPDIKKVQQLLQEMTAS

Compound | IC50 (IRAK4 enzyme; TR-FRET) [nM] | EC50 (TNFα; TNFα content) [nM] | IC50 (IRAK4 enzyme; TR-FRET (HTRF)) [nM] | EC50 (TNFα; TNFα by TR-FRET) [nM]
CC(C)(O)[C@H](F)CNC(=O)c1cnc(-c2ccc3cc(C#N)cnn23)cc1N[C@H]1CCOC[C@@H]1F [Example 151, 6-(3-cyanopyrrolo[1,2-b]pyridazin-7-yl)-N-((R)-2-fluoro-3-hydroxy-3-methylbutyl)-4-(((3R,4S)-3-fluorotetrahydro-2H-pyran-4-yl)amino) nicotinamide] | < 1 | 96 | – | –
N#Cc1ccc(NC(=O)c2cnc(-c3ccc4cc(C#N)cnn34)cc2N[C@H]2CCC[C@@H](O)C2)nc1 [Example 386, 6-(3-cyanopyrrolo[1,2-b]pyridazin-7-yl)-N-(5-cyanopyridin-2-yl)-4-(((1S,3R)-3-hydroxycyclohexyl)amino)nicotinamide] | 8 | 2380 | – | –
CC(C)(O)[C@H](F)CNC(=O)c1cnc(-c2ccc3cc(C#N)cnn23)cc1Nc1cncc(OC(F)F)c1 [Example 217, (R)-6-(3-cyanopyrrolo[1,2-b]pyridazin-7-yl)-4-((5-(difluoromethoxy)pyridin-3-yl)amino)-N-(2-fluoro-3-hydroxy-3-methylbutyl)nicotinamide] | < 1 | 63 | – | –
CNC(=O)c1cnc(-c2ccc3cc(C#N)cnn23)cc1N[C@H]1CC[C@H](C(=O)NC)C1 [Example 467, 6-(3-cyanopyrrolo[1,2-b]pyridazin-7-yl)-N-methyl-4-(((1S,3S)-3-(methylcarbamoyl)cyclo-pentyl)amino)nicotinamide] | – | 167 | 4 | –
COC(=O)N[C@H]1C[C@@H](Nc2cc(-c3ccc4cc(C#N)cnn34)ncc2C(=O)NC[C@@H](F)C(C)(C)O)C1 [Example 457, methyl ((1S,3s)-3-((2-(3-cyanopyrrolo[1,2-b]pyridazin-7-yl)-5-(((R)-2-fluoro-3-hydroxy-3-methylbutyl)carbamoyl)pyridin-4-yl)amino)cyclo-butyl)carbamate] | – | 370 | 3 | –
CC(C)(O)[C@H](F)CNC(=O)c1cnc(-c2ccc3cc(C#N)cnn23)cc1Nc1cnc(Cl)cn1 [Example 970, (R)-4-((5-chloropyrazin-2-yl)amino)-6-(3-cyano-pyrrolo[1,2-b]pyridazin-7-yl)-N-(2-fluoro-3-hydroxy-3-methylbutyl)nicotinamide] | < 1 | – | – | 57
C[C@@H]1CN(c2ncc(Nc3cc(-c4ccc5cc(C#N)cnn45)ncc3C(=O)NC[C@@H](F)C(C)(C)O)cn2)C[C@H](C)O1 [Example 686, 6-(3-cyanopyrrolo[1,2-b]pyridazin-7-yl)-4-((2-((2S,6R)-2,6-dimethyl-morpholino)pyrimidin-5-yl)amino)-N-((R)-2-fluoro-3-hydroxy-3-methylbutyl) nicotinamide] | – | 20 | < 1 | –
CC(C)(C)OC(=O)NCC12CC(Nc3cc(-c4ccc5cc(C#N)cnn45)ncc3C(=O)NC[C@@H](F)C(C)(C)O)(C1)C2 [Example 550, (R)-tert-butyl ((3-((2-(3-cyanopyrrolo[1,2-b]pyridazin-7-yl)-5-((2-fluoro-3-hydroxy-3-methylbutyl)carbamoyl)pyridin-4-yl)amino)bicyclo[1.1.1]pentan-1-yl)methyl)carbamate] | – | 364 | 2 | –
CN1CCN(C(=O)[C@H](F)CNC(=O)c2cnc(-c3ccc4cc(C#N)cnn34)cc2NC23CCC(O)(CC2)CC3)CC1 [Example 948, (R)-6-(3-cyanopyrrolo[1,2-b]pyridazin-7-yl)-N-(2-fluoro-3-(4-methylpiperazin-1-yl)-3-oxopropyl)-4-((4-hydroxybicyclo[2.2.2]octan-1-yl)amino) nicotinamide] | 3 | – | – | 282
CC(C)(O)[C@H](F)CNC(=O)c1cnc(-c2ccc3cc(C#N)cnn23)cc1Nc1ccc(CNC(=O)C2CC2)cc1 [Example 202, (R)-6-(3-cyanopyrrolo[1,2-b]pyridazin-7-yl)-4-((4-(cyclopropane-carboxamidomethyl)phenyl)amino)-N-(2-fluoro-3-hydroxy-3-methylbutyl)nicotinamide] | < 1 | 22 | – | –
CC(=O)NC12CC(Nc3cc(-c4ccc5cc(C#N)cnn45)ncc3C(=O)N[C@H]3CC[C@H](C(=O)N4CC(F)(F)C4)CC3)(C1)C2 [Example 478, 4-((3-acetamido-bicyclo[1.1.1]pentan-1-yl)amino)-6-(3-cyano-pyrrolo[1,2-b]pyridazin-7-yl)-N-((1r,4r)-4-(3,3-difluoroazetidine-1-carbonyl)cyclohexyl) nicotinamide] | – | 73 | 1 | –
CC(C)(O)[C@H](F)CNC(=O)c1cnc(-c2ccc3cc(C#N)cnn23)cc1Nc1ccc2[nH]ccc2c1 [Example 576, (R)-4-((1H-indol-5-yl)amino)-6-(3-cyano-pyrrolo[1,2-b]pyridazin-7-yl)-N-(2-fluoro-3-hydroxy-3-methylbutyl) nicotinamide] | – | 21 | < 1 | –
COC(=O)N(C)C[C@H]1C[C@H](Nc2cc(-c3ccc4cc(C#N)cnn34)ncc2C(=O)NC[C@@H](F)C(C)(C)O)C1 [Example 620, Methyl (((1R,3r)-3-((2-(3-cyanopyrrolo[1,2-b]pyridazin-7-yl)-5-(((R)-2-fluoro-3-hydroxy-3-methylbutyl)carbamoyl)pyridin-4-yl)amino)cyclobutyl)methyl)(methyl)carbamate] | – | 54 | 1 | –
CC(C)(O)[C@H](F)CNC(=O)c1cnc(-c2ccc3cc(C#N)cnn23)cc1Nc1ccc2c(c1)C1(CC1)C(=O)N2 [Example 665, (R)-6-(3-cyanopyrrolo[1,2-b]pyridazin-7-yl)-N-(2-fluoro-3-hydroxy-3-methylbutyl)-4-((2′-oxospiro[cyclopropane-1,3′-indolin]-5′-yl)amino)nicotinamide] | – | 299 | 8 | –
CN(C)c1ncc(Nc2cc(-c3ccc4cc(C#N)cnn34)ncc2C(=O)NC[C@@H](F)C(C)(C)O)cn1 [Example 669, (R)-6-(3-cyanopyrrolo[1,2-b]pyridazin-7-yl)-4-((2-(dimethylamino)pyrimidin-5-yl)amino)-N-(2-fluoro-3-hydroxy-3-methylbutyl) nicotinamide] | – | 4 | < 1 | –
[2H]C([2H])([2H])N(C(=O)C12CCC(Nc3cc(-c4ccc5cc(C#N)cnn45)ncc3C(=O)NC[C@@H](F)C(C)(C)O)(CC1)CC2)C([2H])([2H])[2H] [Example 404, (R)-4-((4-(bis(methyl-d3)carbamoyl)bicyclo[2.2.2]octan-1-yl)amino)-6-(3-cyanopyrrolo[1,2-b]pyridazin-7-yl)-N-(2-fluoro-3-hydroxy-3-methylbutyl)nicotinamide] | – | 11 | 1 | –
COC(=O)N[C@]1(C)CC[C@H](Nc2cc(-c3ccc4cc(C#N)cnn34)ncc2C(=O)NC[C@@H](F)C(C)(C)O)CC1 [Example 619, methyl ((1S,4s)-4-((2-(3-cyanopyrrolo[1,2-b]pyridazin-7-yl)-5-(((R)-2-fluoro-3-hydroxy-3-methylbutyl)carbamoyl)pyridin-4-yl)amino)-1-methylcyclohexyl) carbamate] | – | 168 | 3 | –
N#Cc1cnn2c(-c3cc(NC45CCC(O)(CC4)CC5)c(C(=O)NCc4cccnc4)cn3)ccc2c1 [Example 931, 6-(3-cyanopyrrolo[1,2-b]pyridazin-7-yl)-4-((4-hydroxybicyclo[2.2.2]octan-1-yl)amino)-N-(pyridin-3-ylmethyl) nicotinamide] | 3 | – | – | 163
CC(C)Nc1cc(-c2ccc3cc(C#N)cnn23)ncc1C(N)=O [Example 39, 6-(3-cyanopyrrolo[1,2-b]pyridazin-7-yl)-4-(isopropylamino) nicotinamide] | 4 | 507 | – | –
CC(C)Nc1cc(-c2ccc3cc(C#N)cnn23)ncc1C(=O)NCCc1ccc(S(N)(=O)=O)cc1 [Example 21, 6-(3-cyanopyrrolo[1,2-b]pyridazin-7-yl)-4-(isopropylamino)-N-(4-sulfamoylphenethyl) nicotinamide] | < 1 | 69 | – | –
CNC(=O)O[C@H]1CC[C@@H](Nc2cc(-c3ccc4cc(C#N)cnn34)ncc2C(=O)NC[C@@H](F)C(C)(C)O)CC1 [Example 168, (1S,4s)-4-((2-(3-cyano-pyrrolo[1,2-b]pyridazin-7-yl)-5-(((R)-2-fluoro-3-hydroxy-3-methylbutyl)carbamoyl)pyridin-4-yl)amino)cyclohexyl methylcarbamate] | 1000 | > 10000 | – | –
Cn1cnc(CNC(=O)c2cnc(-c3ccc4cc(C#N)cnn34)cc2NC23CCC(O)(CC2)CC3)c1 [Example 929, 6-(3-cyanopyrrolo[1,2-b]pyridazin-7-yl)-4-((4-hydroxybicyclo[2.2.2]octan-1-yl)amino)-N-((1-methyl-1H-imidazol-4-yl)methyl)nicotinamide] | 1 | – | – | 126
COC(=O)N1CC[C@@H](CNC(=O)c2cnc(-c3ccc4cc(C#N)cnn34)cc2NC23CCC(O)(CC2)CC3)C1 [Example 742, (S)-methyl 3-((6-(3-cyano-pyrrolo[1,2-b]pyridazin-7-yl)-4-((4-hydroxy-bicyclo[2.2.2]octan-1-yl)amino)nicotinamido)methyl)pyrrolidine-1-carboxylate] | – | 126 | 1 | –
CC(C)(O)[C@H](F)CNC(=O)c1cnc(-c2ccc3cc(C#N)cnn23)cc1N[C@@H]1C[C@@H]2CN(S(C)(=O)=O)C[C@@H]2C1 [Example 247, 6-(3-cyanopyrrolo[1,2-b]pyridazin-7-yl)-N-((R)-2-fluoro-3-hydroxy-3-methylbutyl)-4-(((3aR,5r,6aS)-2-(methylsulfonyl)octahydro-cyclopenta[c]pyrrol-5-yl)amino)nicotinamide] | 6 | 262 | – | –
CC(C)(O)[C@H](F)CNC(=O)c1cnc(-c2ccc3cc(C#N)cnn23)cc1Nc1ccc2cn[nH]c2c1 [Example 574, (R)-4-((1H-indazol-6-yl)amino)-6-(3-cyano-pyrrolo[1,2-b]pyridazin-7-yl)-N-(2-fluoro-3-hydroxy-3-methylbutyl) nicotinamide] | – | 57 | < 1 | –
